According to BindingDB's records for doi:10.1097/00001756-199710200-00002 (Cnrs Upr 9023, 1997):
Values joined by “and” are separate entries in the source; they are usually repeats but may differ in a detail not shown here. Equal entries are not always repeated.

How the values were obtained:
[1] = biological target: 5-hydroxytryptamine receptor 4 (Rattus norvegicus, UniProt Q62758)
[2] = biological target: 5-hydroxytryptamine receptor 4 (Homo sapiens, UniProt Q13639)
Chain of 5-hydroxytryptamine receptor 4 (Homo sapiens, UniProt Q13639) (Q13639 whole entry): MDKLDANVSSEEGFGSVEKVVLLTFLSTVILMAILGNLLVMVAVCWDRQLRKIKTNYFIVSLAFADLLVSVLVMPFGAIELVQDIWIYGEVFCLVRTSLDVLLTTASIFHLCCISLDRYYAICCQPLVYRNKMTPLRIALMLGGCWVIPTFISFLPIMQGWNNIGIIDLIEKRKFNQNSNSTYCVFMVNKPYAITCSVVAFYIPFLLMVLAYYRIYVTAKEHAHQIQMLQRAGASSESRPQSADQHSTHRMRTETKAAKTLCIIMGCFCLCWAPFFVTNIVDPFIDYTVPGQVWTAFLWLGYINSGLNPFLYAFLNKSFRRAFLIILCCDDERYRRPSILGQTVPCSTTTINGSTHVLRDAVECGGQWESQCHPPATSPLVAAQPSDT

Chain of 5-hydroxytryptamine receptor 4 (Rattus norvegicus, UniProt Q62758) (Q62758 whole entry): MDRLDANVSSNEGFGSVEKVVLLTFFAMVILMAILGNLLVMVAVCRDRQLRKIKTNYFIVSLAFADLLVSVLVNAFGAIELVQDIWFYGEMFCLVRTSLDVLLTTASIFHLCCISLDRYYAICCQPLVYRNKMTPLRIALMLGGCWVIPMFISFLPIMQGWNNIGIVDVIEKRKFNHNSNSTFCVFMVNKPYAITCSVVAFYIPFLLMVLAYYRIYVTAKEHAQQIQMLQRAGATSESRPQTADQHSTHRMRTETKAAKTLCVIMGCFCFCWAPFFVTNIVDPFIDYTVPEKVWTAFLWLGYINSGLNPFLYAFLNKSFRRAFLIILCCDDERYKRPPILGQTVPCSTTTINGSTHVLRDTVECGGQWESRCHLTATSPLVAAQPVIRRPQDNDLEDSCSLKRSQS

**Q.** `CC(C)n1c(=O)n(C(=O)NC2CC3CCC(C2)N3C)c2ccccc21` (centres undefined) [BIMU 8] was tested. Which Ki [1] did it give?
**A.** 19.1 nM

**Q.** And the Ki [2]?
**A.** 45.7 nM

**Q.** How did the Ki [1] turn out when `COc1ccc2[nH]c(=O)n(C(=O)OC3CC4CCC(C3)N4C)c2c1` (centres undefined) [DAU 6285] was run?
**A.** 22.4 nM and 5.37 nM

**Q.** And the Ki [2]?
**A.** 18.6 nM and 10.5 nM

**Q.** Which Ki [1] does the source give for `Cn1cc(C(=O)OCC2CCN(CCNS(C)(=O)=O)CC2)c2ccccc21` [GR 113808] here?
**A.** 0.02 nM and 0.03 nM

**Q.** What about the Ki [2] of the same molecule?
**A.** 0.02 nM and 0.09 nM

**Q.** For `COc1[nH]c2ccc(F)cc2c1C(=O)OCC1CCN(CCNS(C)(=O)=O)CC1` [GR-125487], which Ki [1] is on record?
**A.** 0.0089 nM

**Q.** What about the Ki [2] of the same molecule?
**A.** 0.02 nM

**Q.** `COc1cc(N)c(Cl)cc1C(=O)NC1CCN2CCCC1C2` (centres undefined) [NSC_3035240] was tested. Which Ki [1] did it give?
**A.** 112 nM

**Q.** How did the Ki [1] turn out when `COc1cc(N)c(Cl)cc1C(=O)NC1CN2CCC1CC2` (centres undefined) [ZACOPRIDE,R] was run?
**A.** 186 nM

**Q.** What about the Ki [2] of the same molecule?
**A.** 282 nM

**Q.** How did the Ki [1] turn out when `NCCc1c[nH]c2ccc(C(N)=O)cc12` [[3H]-5-carboxamidotryptamine] was run?
**A.** 9120 nM

**Q.** How did the Ki [1] turn out when `COc1ccc2[nH]cc(CCN)c2c1` [tryptamine, 5-Methoxy] was run?
**A.** 123 nM

**Q.** What about the Ki [2] of the same molecule?
**A.** 155 nM
